Laboratory results published in US6323204A, “Methods for using (2-imidazolin-2-ylamino) quinoxaline derivatives” (Allergan, priority 1998, dated 2001).
Where two headings read alike, the source gives them in different places.

Experiments:
[1] = in words
Description: The final quinoxaline derivative produced in Example 2, that is 5-bromo-6-(2-imidazolin-2-ylamino)quinoxaline, was tested for central nervous system anesthetization activity as follows.
(§1) Two (2) animal models were utilized to determine the central nervous system anesthetization activity of the quinoxaline derivative produced in Example 2.
(§2) The first of these animal models is identified generally as the mouse hexobarbital sleep time test. Briefly, the compound in question (in a dosage range of between 10 and 500 micrograms/kg, i.v.) and the barbiturate hexobarbital (75 mg/kg, i.p) are coadministered to mice weighing 20 to 22 grams. […] Sleep time is assessed as the time associated with the loss of the animal's reflex to right itself when placed on its back. The ED15 is estimated from dose-response data as the effective dose which potentiates sleep time by 15 minutes. The second animal model used is identified generally as the rat activity test. Briefly, rats weighing 140 to 160 grams are placed into an environmentally isolated activity monitor five (5) minutes following administration of the compound in question (in the range of 1 to 1000 micrograms/kg, i.v.). Horizontal activity, measured in counts is determined for five (5) minutes.
The final quinoxaline derivative produced in Example 2 was tested using both of the above-noted animal models. […]

[2] = rat activity test (central nervous system anesthetization activity); type: in vivo; details: iv, read-out: ID50 Rat Activity
Description: as §1, §2
(§3) The final quinoxaline derivative produced in Example 2 was tested using both of the above-noted animal models. For comparison purposes, clonidine and its hydrophilic analog, p-amino-clonidine, were also tested using these animal models.

[3] = mouse hexobarbital sleep time test (central nervous system anesthetization activity); type: in vivo; details: i.v., with hexobarbital 75 mg/kg i.p., dose which potentiates sleep time by 15 minutes
Description: as §1, §2, §3

[4] = in words; stated as known; cited from earlier work

| Structure (SMILES) | central nervous system anesthetization activity compared with the hydrophilic analog of clonidine (p-amino clonidine) [1] | central nervous system anesthetization activity ([1]; mouse sleep time and rat activity tests) | ED50 ([2]; Rattus norvegicus) | ED15 Mouse Sleep-Time [3] | anesthetization activity (known) [4] | ED50 ([2]; rat, i.v., dose which decreases horizontal activity by 50%) |
| --- | --- | --- | --- | --- | --- | --- |
| Brc1c(NC2=NCCN2)ccc2nccnc12 [Example 2, 5-bromo-6-(2-imidazolin-2-ylamino) quinoxaline] | substantially more of such activity | substantial central nervous system anesthetization activity | 0.077 mg/kg | 0.116 mg/kg |  |  |
| Clc1cccc(Cl)c1N=C1NCCN1 [Clonidine] |  |  | 0.026 mg/kg | 0.075 mg/kg | significant anesthetization activity |  |
| Nc1cc(Cl)c(NC2=NCCN2)c(Cl)c1 [p-Amino Clonidine] |  |  |  | > 0.5 mg/kg |  | 0.302 mg/kg |
